Data from patent US12398151B2, “Sumo inhibitor compounds and uses thereof” (SUVALENT THERAPEUTICS, INC., priority 2019, dated 2025).
Where two headings read alike, the source gives them in different places.

Experiments:
[1] = molecular target: T1, Atg7 (Homo sapiens, UniProt O95352); test: Atg7 activating enzyme (E1) inhibition; assay type: biochemical; conditions: 25 uM compound, 60 min preincubation; for inhibition at 25 µM: read-out: Atg7 percent inhibition of adduct formation
T1 sequence (O95352 1-703): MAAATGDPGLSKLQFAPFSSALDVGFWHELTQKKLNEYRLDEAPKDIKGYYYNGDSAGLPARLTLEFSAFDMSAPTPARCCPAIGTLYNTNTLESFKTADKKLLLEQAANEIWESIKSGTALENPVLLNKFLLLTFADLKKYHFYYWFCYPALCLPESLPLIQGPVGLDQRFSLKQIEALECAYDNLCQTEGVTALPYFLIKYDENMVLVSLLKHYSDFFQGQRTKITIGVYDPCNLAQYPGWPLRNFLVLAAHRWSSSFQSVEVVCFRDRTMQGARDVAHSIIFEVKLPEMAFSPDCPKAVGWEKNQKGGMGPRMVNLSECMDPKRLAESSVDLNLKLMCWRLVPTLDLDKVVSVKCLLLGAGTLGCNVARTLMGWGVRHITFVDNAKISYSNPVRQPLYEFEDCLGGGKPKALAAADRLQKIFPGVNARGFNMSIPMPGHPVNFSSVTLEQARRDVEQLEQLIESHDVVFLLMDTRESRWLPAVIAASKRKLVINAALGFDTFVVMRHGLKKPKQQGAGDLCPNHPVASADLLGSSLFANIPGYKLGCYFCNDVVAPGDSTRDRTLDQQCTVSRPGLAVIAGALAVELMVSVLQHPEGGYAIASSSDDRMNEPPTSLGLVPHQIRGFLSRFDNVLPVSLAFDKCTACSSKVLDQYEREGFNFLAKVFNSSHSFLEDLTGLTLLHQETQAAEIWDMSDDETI
Experimental: (§1) Compounds are evaluated for their inhibitory effect on activating enzymes (E1) of ubiquitin, SUMO, Nedd8, Urm1, ISG15 or Atg7 using previously reported methods and protocols. One example is in: Allosteric inhibition of ubiquitin-like modifications by a class of inhibitor of SUMO-activating enzyme. Cell Chemical Biology, 26, 1-11, 2019. PMID: 28051857.
(§2) Compounds are tested in the following manner. The compound and SUMO E1 are incubated for a predetermined amount of time. UBC9, SUMO1, and ATP are added to the E1-compound mixture and incubated at 37° C. The reaction is quenched with Laemmli Buffer. The UBC9-SUMO1 conjugation is analyzed via SDS gel electrophoresis. The percent inhibition is measured by the intensity of the UBC9-SUMO1 band compared to the no compound control. Activities are listed as compound concentration (uM), preincubation time of E1 with compound (min), and percent inhibition of adduct formation (%). […]

[2] = molecular target: T2, SUMO E1 (Homo sapiens, UniProt Q9UBT2); test: SUMO E1 inhibition: UBC9-SUMO1 conjugation by SDS gel electrophoresis; assay type: biochemical; conditions: for SUMO E1 percent inhibition of adduct formation / inhibition at 25 µM: 25 uM compound; for SUMO E1 percent inhibition of adduct formation: 25 µM; for inhibition at 1 µM: 1 uM compound; for inhibition at 18 µM: 18 uM compound; for inhibition at 27 µM: 27 uM compound; for inhibition at 9 µM: 9 uM compound; for inhibition at 10 µM: 10 uM compound
T2 sequence (Q9UBT2 1-640): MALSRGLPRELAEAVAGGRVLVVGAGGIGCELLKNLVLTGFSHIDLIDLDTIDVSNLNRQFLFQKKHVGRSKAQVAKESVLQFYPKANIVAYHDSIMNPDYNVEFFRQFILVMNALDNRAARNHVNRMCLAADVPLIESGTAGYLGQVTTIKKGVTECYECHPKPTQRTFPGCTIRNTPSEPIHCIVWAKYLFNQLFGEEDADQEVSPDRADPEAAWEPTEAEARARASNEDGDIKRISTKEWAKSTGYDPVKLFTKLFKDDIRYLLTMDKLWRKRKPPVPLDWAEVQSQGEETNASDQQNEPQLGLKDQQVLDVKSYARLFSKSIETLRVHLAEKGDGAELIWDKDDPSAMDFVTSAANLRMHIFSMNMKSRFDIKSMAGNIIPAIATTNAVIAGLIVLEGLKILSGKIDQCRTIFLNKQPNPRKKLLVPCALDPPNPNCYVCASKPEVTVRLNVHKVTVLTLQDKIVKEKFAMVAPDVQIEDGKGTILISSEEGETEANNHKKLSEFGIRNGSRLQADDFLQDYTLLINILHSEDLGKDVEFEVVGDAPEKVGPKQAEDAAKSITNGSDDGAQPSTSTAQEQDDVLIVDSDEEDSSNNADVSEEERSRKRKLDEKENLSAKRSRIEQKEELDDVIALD
T2 sequence (Q9UBE0 1-346 partner): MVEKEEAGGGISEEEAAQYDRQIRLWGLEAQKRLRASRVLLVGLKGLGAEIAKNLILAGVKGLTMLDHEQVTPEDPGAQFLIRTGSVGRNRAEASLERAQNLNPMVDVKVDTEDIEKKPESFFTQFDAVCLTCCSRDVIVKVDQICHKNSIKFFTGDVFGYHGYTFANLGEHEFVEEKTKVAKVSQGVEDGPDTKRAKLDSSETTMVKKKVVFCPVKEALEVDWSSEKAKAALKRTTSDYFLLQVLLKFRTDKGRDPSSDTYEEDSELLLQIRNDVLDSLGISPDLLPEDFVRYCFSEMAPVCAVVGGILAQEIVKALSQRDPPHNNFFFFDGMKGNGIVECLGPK
Experimental: as §1, §2

[3] = 60 min preincubation, read-out: SUMO E1 percent inhibition of adduct formation
[4] = 30 min preincubation, read-out: SUMO E1 percent inhibition of adduct formation
[5] = 15 min preincubation, read-out: SUMO E1 percent inhibition of adduct formation
[6] = 20 min preincubation, read-out: SUMO E1 percent inhibition of adduct formation

| SMILES | inhibition at 25 µM [1] [%] | inhibition at 25 µM [2, 3] [%] | further results |
| --- | --- | --- | --- |
| C=CC(=O)N1Cc2ccc(Br)cc2[C@@H](c2ccc(Cl)cc2)C1 [Compound 65] | < 1 | – | SUMO E1 percent inhibition of adduct formation ([2]; 60 min preincubation): 25 uM 60 min 10% |
| C=CC(=O)N1CCCc2cc(Br)ccc21 [Compound 20] | < 1 | < 1 | – |
| C=CC(=O)N1Cc2sc(Cl)cc2[C@@H](c2ccccc2F)C1 [Compound 114] | < 1 | – | inhibition at 1 µM [2, 4]: 100% |
| COC(=O)/C=C/C(=O)N1Cc2ccccc2[C@@H](c2ccccc2)C1 [Compound 37] | < 1 | 40 | – |
| C=CC(=O)N1Cc2sc(Cl)cc2[C@@H](c2ccccc2OCCCN(C)C)C1 [Compound 152] | < 1 | – | inhibition at 6 µM ([2]; 6 uM compound, 15 min preincubation, read-out: SUMO E1 percent inhibition of adduct formation): < 1% |
| C=CC(=O)N1CCc2ccc(Br)cc2C1 [Compound 2] | < 1 | – | inhibition at 25 µM ([2]; 55 min preincubation of E1 with compound, read-out: SUMO E1 percent inhibition of adduct formation): 50% |
| C=CC(=O)N1Cc2sc(Cl)cc2[C@@H](c2cccc(C)c2C)C1 [Compound 149] | – | – | inhibition at 1 µM [2, 4]: 90% |
| C=CC(=O)N1Cc2sc(Cl)cc2[C@@H](c2csc3ccccc23)C1 [Compound 154] | < 1 | – | inhibition at 18 µM [2, 5]: < 1% |
| C=CC(=O)N1CC[C@H](c2ccccc2)c2cc(Cl)sc2C1 [Compound 137] | < 1 | – | inhibition at 27 µM [2, 4]: < 1% |
| C=CC(=O)N1Cc2ccccc2[C@@H](c2cccc(OC)c2)C1 [Compound 35] | < 1 | < 1 | – |
| C=CC(=O)N1CCc2cc(-c3ccccc3)ccc2C1 [Compound 6] | < 1 | – | inhibition at 25 µM [2, 4]: < 1% |
| C=CC(=O)N1Cc2ccc(N)cc2C1 [Compound 14] | < 1 | < 1 | – |
| C=CC(=O)N1Cc2cc(Br)sc2[C@@H](c2ccccc2C)C1 [Compound 111] | < 1 | – | inhibition at 27 µM [2, 4]: 80% |
| C=CC(=O)N1Cc2sc(Cl)cc2[C@@H](c2ccco2)C1 [Compound 148] | < 1 | – | inhibition at 9 µM [2, 4]: < 1% |
| CCC(=O)Nc1ccc2cc(Br)ccc2c1 [Compound 25] | < 1 | < 1 | – |
| C=CC(=O)N1Cc2sc(Cl)cc2[C@@H](c2ccccc2Br)C1 [Compound 113] | < 1 | – | inhibition at 1 µM [2, 4]: 95% |
| C=CC(=O)N1Cc2ccccc2[C@@H](C(=O)Nc2ccccc2)C1 [Compound 32] | < 1 | < 1 | – |
| C=CC(=O)N1Cc2sccc2[C@@H]([C@H]2CCCN(C)C2)C1 [Compound 146] | < 1 | – | inhibition at 9 µM [2, 4]: < 1% |
| Cc1ccccc1[C@H]1CN(C(=O)CCl)Cc2sc(Cl)cc21 [Compound 115] | 100 | – | inhibition at 27 µM [2, 4]: 80% |
| CCS(=O)(=O)N1Cc2sc(Cl)cc2[C@@H](c2ccccc2C)C1 [Compound 96] | 90 | – | inhibition at 9 µM [2, 4]: < 1% |
| Cc1ccccc1[C@H]1CN(C(=O)/C=C/CN(C)C)Cc2sc(Cl)cc21 [Compound 99] | < 1 | – | inhibition at 9 µM [2, 6]: < 1% |

| SMILES | inhibition at 25 µM [1] [%] | inhibition at 25 µM [2, 3] [%] | further results |
| --- | --- | --- | --- |
| C=CC(=O)N1CCc2ccccc2[C@@H](c2ccccc2)[C@H]1C [Compound 140] | < 1 | – | inhibition at 27 µM [2, 4]: < 1% |
| C=CC(=O)N1Cc2cc(OCC)ccc2[C@@H](c2ccccc2)C1 [Compound 36] | < 1 | 40 | – |
| C=CC(=O)N1Cc2cc(Cl)ccc2[C@@H](c2ccccn2)C1 [Compound 80] | < 1 | – | inhibition at 25 µM [2, 4]: 50% |
| C=CC(=O)N1Cc2ccc(NC(=O)c3ccc(F)cc3)cc2C1 [Compound 15] | < 1 | < 1 | – |
| C=CC(=O)N1Cc2ccc(Br)cc2[C@@H](c2ccc(Cl)cc2)C1 [Compound 66] | – | – | Atg7 percent inhibition of adduct formation [1]: 25 uM 60 min <1%; SUMO E1 percent inhibition of adduct formation ([2]; 60 min preincubation): 25 uM 60 min <1% |
| C=CC(=O)N1CCC2CCCCC2C1 (centres unmarked) [Compound 12] | < 1 | < 1 | – |
| C=CC(=O)N1CCc2cc(CC(C)C)ccc2C1 [Compound 19] | < 1 | 40 | – |
| C=CC(=O)N1Cc2cc(OCc3ccccc3)ccc2[C@@H](c2ccccc2)C1 [Compound 49] | < 1 | < 1 | – |
| C=CC(=O)N[C@H]1Cc2sccc2[C@@H](c2ccccc2Cl)C1 [Compound 130] | < 1 | – | inhibition at 3 µM ([2]; 3 uM compound, 30 min preincubation, read-out: SUMO E1 percent inhibition of adduct formation): < 1% |
| C=CC(=O)N1Cc2sc(Cl)cc2[C@@H](c2ccccc2Br)C1 [Compound 158] | – | – | inhibition at 16 µM ([2]; 16 uM compound, 45 min preincubation, read-out: SUMO E1 percent inhibition of adduct formation): < 1% |
| C=CC(=O)N1Cc2sc(Cl)cc2[C@@H](c2ccccc2CC)C1 [Compound 144] | – | – | inhibition at 27 µM [2, 4]: 95% |
| C=CC(=O)N1Cc2sc(Cl)cc2[C@@H](Cc2ccccc2)C1 [Compound 126] | – | – | inhibition at 27 µM [2, 6]: 40% |
| CCOC(=O)/C=C/CN1Cc2ccccc2[C@@H](c2ccccc2)C1 [Compound 33] | – | < 1 | – |
| C=CC(=O)Oc1cccc([C@H]2CN(C(C)=O)Cc3ccccc32)c1 [Compound 50] | – | – | inhibition at 10 µM [2, 3]: 50% |
| C=CC(=O)N1Cc2sc(Cl)cc2[C@@H](C2CCCC2)C1 [Compound 125] | – | – | inhibition at 27 µM [2, 4]: 100% |
| C=CC(=O)N1Cc2sc(C)cc2[C@@H](c2ccccc2)C1 [Compound 81] | – | – | inhibition at 10 µM [2, 4]: 30% |
| Cc1ccccc1[C@H]1CN(C(=O)/C=C/CBr)Cc2sc(Cl)cc21 [Compound 131] | – | – | inhibition at 9 µM [2, 5]: < 1% |
| C=CC(=O)N1Cc2sc(Cl)cc2[C@@H](c2ccccc2-c2ccccc2C(F)(F)F)C1 [Compound 156] | – | – | inhibition at 9 µM [2, 5]: < 1% |
| C=CC(=O)N1Cc2ccccc2[C@@H](c2ccccc2)C1 [Compound 28] | – | < 1 | – |
| C=CC(=O)Oc1cccc([C@H]2CN(C(=O)C=C)Cc3ccccc32)c1 [Compound 44] | – | – | inhibition at 18 µM [2, 4]: 50% |
| C=CC(=O)N1Cc2sc(Cl)cc2[C@@H](C2CCCCC2)C1 [Compound 124] | – | – | inhibition at 1 µM [2, 4]: 100% |
